Measurements reported in PubChem BioAssay AID248 (DTP/NCI, 2004).
Inconclusive results and toxic doses are left out.

Tested on: L1210 leukemia ip in BDF1 mice, survival T/C
Assay: NCI In Vivo Anticancer Drug Screen. Data for tumor model L1210 Leukemia (intraperitoneal) in B6D2F1 (BDF1) mice
Details: endpoint: mean survival time, higher = longer survival
In short: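 Each compound was tested against a transplantable tumor grown in mice. The endpoint was survival, with treated animals benchmarked against vehicle controls as a simple ratio.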

[1] = dose: 12.5 mg/kg/injection, schedule: Q04DX003 (ip), vehicle: saline with Tween-80
[2] = dose: 100.0 mg/kg/injection, schedule: Q01DX009 (ip), vehicle: saline with Tween-80
[3] = dose: 100.0 mg/kg/injection, schedule: Q04DX003 (ip), vehicle: saline with Tween-80
[4] = dose: 200.0 mg/kg/injection, schedule: Q01DX009 (ip), vehicle: saline with Tween-80
[5] = dose: 200.0 mg/kg/injection, schedule: Q04DX003 (ip), vehicle: saline with Tween-80
[6] = dose: 400.0 mg/kg/injection, schedule: Q04DX003 (ip), vehicle: saline with Tween-80
[7] = dose: 100.0 mg/kg/injection, schedule: Q01DX001 (ip), vehicle: saline
[8] = dose: 200.0 mg/kg/injection, schedule: Q01DX001 (ip), vehicle: saline
[9] = dose: 400.0 mg/kg/injection, schedule: Q01DX001 (ip), vehicle: saline
[10] = dose: 50.0 mg/kg/injection, schedule: Q01DX009 (ip), vehicle: saline with Tween-80

CC[C@@]1(O)C(=O)OCc2c1cc1n(c2=O)Cc2cc3c(OC)cccc3nc2-1
T/C (dose: 0.25 mg/kg/injection, schedule: Q01DX009 (ip), vehicle: saline with Tween-80): 122 % of control
T/C (dose: 0.5 mg/kg/injection, schedule: Q01DX009 (ip), vehicle: carboxymethylcellulose (CMC)): 120 % of control
T/C (dose: 0.5 mg/kg/injection, schedule: Q01DX009 (ip), vehicle: saline with Tween-80): 122 % of control
T/C (dose: 1.0 mg/kg/injection, schedule: Q01DX009 (ip), vehicle: carboxymethylcellulose (CMC)): 107 % of control
T/C (dose: 1.0 mg/kg/injection, schedule: Q01DX009 (ip), vehicle: saline with Tween-80): 162 % of control
T/C (dose: 4.0 mg/kg/injection, schedule: Q01DX009 (ip), vehicle: carboxymethylcellulose (CMC)): 88 % of control
T/C (dose: 4.0 mg/kg/injection, schedule: Q04DX003 (ip), vehicle: saline with Tween-80): 173 % of control
T/C (dose: 8.0 mg/kg/injection, schedule: Q04DX003 (ip), vehicle: saline with Tween-80): 215 % of control
T/C [1]: 123 % of control
T/C (dose: 25.0 mg/kg/injection, schedule: Q04DX003 (ip), vehicle: saline with Tween-80): 96 % of control
T/C (dose: 50.0 mg/kg/injection, schedule: Q04DX003 (ip), vehicle: saline with Tween-80): 93 % of control

O=C(COc1ccc(Cl)cc1Cl)Nc1ccc(NC(=O)COc2ccc(Cl)cc2Cl)cc1
T/C (dose: 12.5 mg/kg/injection, schedule: Q01DX009 (ip), vehicle: Klucel (hydroxypropylcellulose) (HPC)): 87 % of control
T/C (dose: 12.5 mg/kg/injection, schedule: Q04DX002 (ip), vehicle: Klucel (hydroxypropylcellulose) (HPC)): 95 % of control
T/C (dose: 25.0 mg/kg/injection, schedule: Q01DX009 (ip), vehicle: Klucel (hydroxypropylcellulose) (HPC)): 94 % of control
T/C (dose: 25.0 mg/kg/injection, schedule: Q04DX002 (ip), vehicle: Klucel (hydroxypropylcellulose) (HPC)): 95 % of control
T/C (dose: 50.0 mg/kg/injection, schedule: Q01DX009 (ip), vehicle: Klucel (hydroxypropylcellulose) (HPC)): 87 % of control
T/C (dose: 50.0 mg/kg/injection, schedule: Q04DX002 (ip), vehicle: Klucel (hydroxypropylcellulose) (HPC)): 92 % of control

COC1OC2COc3ccccc3OC2C(N)C1N(C)c1ccccc1 (centres undefined)
T/C (dose: 18.75 mg/kg/injection, schedule: Q01DX001 (ip), vehicle: saline with Tween-80): 98 % of control
T/C (dose: 37.5 mg/kg/injection, schedule: Q01DX001 (ip), vehicle: saline with Tween-80): 96 % of control
T/C (dose: 75.0 mg/kg/injection, schedule: Q01DX001 (ip), vehicle: saline with Tween-80): 93 % of control

[O-][n+]1c(CN2CCCCC2)nc2cccc3c2c1-c1ccccc1-3
T/C [2]: 97 % of control
T/C [3]: 101 % of control
T/C [4]: 100 % of control
T/C [5]: 101 % of control
T/C (dose: 400.0 mg/kg/injection, schedule: Q01DX009 (ip), vehicle: saline with Tween-80): 107 % of control
T/C [6]: 100 % of control

CC(C)C1=CC23CCC4C(C)(C(=O)Cl)CCCC4(C)C2CC1C1(Cl)C(=O)OC(=O)C31Cl (centres undefined)
T/C (dose: 75.0 mg/kg/injection, schedule: Q01DX001 (ip), vehicle: other): 94 % of control
T/C (dose: 150.0 mg/kg/injection, schedule: Q01DX001 (ip), vehicle: other): 93 % of control
T/C (dose: 300.0 mg/kg/injection, schedule: Q01DX001 (ip), vehicle: other): 89 % of control

c1ccc(N(c2ccccc2)N(c2ccccc2)c2ccccc2)cc1
T/C (dose: 12.5 mg/kg/injection, schedule: Q01DX009 (ip), vehicle: saline): 90 % of control
T/C (dose: 50.0 mg/kg/injection, schedule: Q04DX003 (ip), vehicle: saline): 89 % of control
T/C [7]: 88 % of control
T/C [8]: 88 % of control

CC(=O)Oc1cc(C)nc(OC(C)=O)c1
T/C [7]: 94 % of control
T/C [8]: 100 % of control
T/C [9]: 97 % of control

C1CCC2C(C1)NC1CCCCC12 (centres undefined)
T/C (dose: 100.0 mg/kg/injection, schedule: Q04DX003 (ip), vehicle: saline): 97 % of control

ON(C(=Nc1cccc2ccccc12)c1ccccc1)c1ccccc1
T/C (dose: 75.0 mg/kg/injection, schedule: Q01DX001 (ip), vehicle: carboxymethylcellulose (CMC)): 97 % of control
T/C (dose: 150.0 mg/kg/injection, schedule: Q01DX001 (ip), vehicle: carboxymethylcellulose (CMC)): 92 % of control
T/C (dose: 300.0 mg/kg/injection, schedule: Q01DX001 (ip), vehicle: carboxymethylcellulose (CMC)): 98 % of control

NNC(=O)CCSc1ccccc1
T/C (dose: 12.5 mg/kg/injection, schedule: Q01DX009 (ip), vehicle: saline with Tween-80): 89 % of control
T/C (dose: 25.0 mg/kg/injection, schedule: Q01DX009 (ip), vehicle: saline with Tween-80): 99 % of control
T/C [10]: 105 % of control

CCOC(=O)C(CC)C(=O)OCC
T/C [3]: 104 % of control
T/C [5]: 98 % of control
T/C [6]: 93 % of control

COC(=O)CC(CC(=O)OC)c1ccc(OC)c([N+](=O)[O-])c1
T/C (dose: 25.6 mg/kg/injection, schedule: Q04DX002 (ip), vehicle: saline with Tween-80): 101 % of control
T/C (dose: 64.0 mg/kg/injection, schedule: Q04DX002 (ip), vehicle: saline with Tween-80): 101 % of control
T/C (dose: 160.0 mg/kg/injection, schedule: Q04DX002 (ip), vehicle: saline with Tween-80): 97 % of control
T/C (dose: 400.0 mg/kg/injection, schedule: Q04DX002 (ip), vehicle: saline with Tween-80): 93 % of control

Nc1nc(=S)c2nc(CNc3ccc(C(=O)NC(CCC(=O)O)C(=O)O)cc3)nnc2[nH]1 (centres undefined)
T/C (dose: 100.0 mg/kg/injection, schedule: Q01DX001 (ip), vehicle: saline with Tween-80): 103 % of control
T/C (dose: 200.0 mg/kg/injection, schedule: Q01DX001 (ip), vehicle: saline with Tween-80): 105 % of control

Cc1ccc(NS(=O)(=O)c2ccccc2)cc1Cl
T/C (dose: 100.0 mg/kg/injection, schedule: Q01DX009 (ip), vehicle: Klucel (hydroxypropylcellulose) (HPC)): 106 % of control
T/C (dose: 100.0 mg/kg/injection, schedule: Q04DX003 (ip), vehicle: Klucel (hydroxypropylcellulose) (HPC)): 108 % of control
T/C (dose: 200.0 mg/kg/injection, schedule: Q01DX009 (ip), vehicle: Klucel (hydroxypropylcellulose) (HPC)): 109 % of control
T/C (dose: 200.0 mg/kg/injection, schedule: Q04DX003 (ip), vehicle: Klucel (hydroxypropylcellulose) (HPC)): 98 % of control
T/C (dose: 400.0 mg/kg/injection, schedule: Q01DX009 (ip), vehicle: Klucel (hydroxypropylcellulose) (HPC)): 98 % of control
T/C (dose: 400.0 mg/kg/injection, schedule: Q04DX003 (ip), vehicle: Klucel (hydroxypropylcellulose) (HPC)): 97 % of control

N#CC(Nc1c(N)nc(N)nc1N)c1ccc(N(CCCl)CCCl)cc1 (centres undefined)
T/C (dose: 50.0 mg/kg/injection, schedule: Q01DX001 (ip), vehicle: carboxymethylcellulose (CMC)): 105 % of control
T/C (dose: 100.0 mg/kg/injection, schedule: Q01DX001 (ip), vehicle: carboxymethylcellulose (CMC)): 103 % of control
T/C (dose: 200.0 mg/kg/injection, schedule: Q01DX001 (ip), vehicle: carboxymethylcellulose (CMC)): 103 % of control
T/C (dose: 400.0 mg/kg/injection, schedule: Q01DX001 (ip), vehicle: carboxymethylcellulose (CMC)): 100 % of control

CCOC(=O)/C(O)=C\c1cc(OC)n[n+]([O-])c1Cl
T/C (dose: 25.0 mg/kg/injection, schedule: Q04DX002 (ip), vehicle: saline with Tween-80): 102 % of control
T/C (dose: 50.0 mg/kg/injection, schedule: Q04DX002 (ip), vehicle: saline with Tween-80): 98 % of control
T/C (dose: 100.0 mg/kg/injection, schedule: Q04DX002 (ip), vehicle: saline with Tween-80): 102 % of control

CN(C)c1ccc(/C(=N\O)C(=O)O)cc1
T/C (dose: 50.0 mg/kg/injection, schedule: Q01DX001 (ip), vehicle: saline): 107 % of control
T/C [7]: 105 % of control
T/C [8]: 100 % of control

C/C(=N/S(=O)(=O)c1ccc(C)cc1)OCCN(C)C
T/C (dose: 3.0 mg/kg/injection, schedule: Q01DX009 (ip), vehicle: saline with Tween-80): 100 % of control
T/C (dose: 3.0 mg/kg/injection, schedule: Q04DX003 (ip), vehicle: saline with Tween-80): 98 % of control
T/C (dose: 6.0 mg/kg/injection, schedule: Q01DX009 (ip), vehicle: saline with Tween-80): 95 % of control
T/C (dose: 6.0 mg/kg/injection, schedule: Q04DX003 (ip), vehicle: saline with Tween-80): 101 % of control
T/C [1]: 90 % of control

Cc1nnc(NS(=O)(=O)c2ccc(N=Nc3c(N)[nH]c(=O)[nH]c3=O)cc2)s1
T/C [7]: 96 % of control
T/C [8]: 111 % of control
T/C [9]: 98 % of control

CC1(C)SC(C(NC(=O)COc2ccccc2)C(=O)O)NC1C(=O)O (centres undefined)
T/C [10]: 101 % of control
T/C [2]: 95 % of control
T/C [4]: 88 % of control
